Data from paper PMC8778818, “Synthesis, Structural Characterization and Anticancer Activity of New 5-Trifluoromethyl-2-thioxo-thiazolo[4,5-d]pyrimidine Derivatives” (Pharmaceuticals, 2022).

Assays:
U251 = assay: NCI-60 screen, CNS Cancer U251; format: cell-based, human; settings: for Growth of Cells (%): U251, 10^−5 M one dose
SNB-19 = assay: NCI-60 screen, CNS Cancer SNB-19; format: cell-based, human; settings: for Growth of Cells (%): SNB-19, 10^−5 M one dose
HCT-15 = assay: NCI-60 screen, Colon Cancer HCT-15; format: cell-based; settings: for Growth of Cells (%): HCT-15, 10^−5 M one dose
IGROV1 = assay: NCI-60 screen, Ovarian Cancer IGROV1; format: cell-based; settings: for Growth of Cells (%): IGROV1, 10^−5 M one dose
NCI/ADR-RES = assay: NCI-60 screen, Ovarian Cancer NCI/ADR-RES; format: cell-based, human; settings: for Growth of Cells (%): 10^−5 M one dose
[1] = test system: A375, C32, DU145, MCF-7/WT, CHO-K1 and HaCaT cell lines; assay: MTT cell viability assay, all six cell lines; format: cell-based; settings: mean over the six cell lines; read-out: Mean A: the mean IC50 for the given compound
Description: Twelve compounds (2a-e, 3a-d and 4a-c) at a concentration range of 50–5000 μM were tested for their antiproliferative potential against four human cancer cell lines (A375—melanotic melanoma, C32—amelanotic melanoma, DU145—prostate cancer androgen-independent, MCF-7/WT—breast adenocarcinoma) and two normal cell lines: Chinese Hamster Ovary (CHO-K1) and immortalized human keratinocytes from histologically normal skin (HaCaT).
To determine the antiproliferative activity of newly synthesized compounds, the following cell lines were used: human melanotic melanoma cell line (A375), human amelanotic melanoma cell line (C32), human breast adenocarcinoma cell line (MCF-7/WT), human prostate cancer androgen-independent (DU145) and two normal cell lines: hamster ovarian (CHO-K1) and immortalized human keratinocytes from histologically normal skin (HaCaT). The cells were obtained from the cell line bank of the Department of Molecular and Cellular Biology, Wroclaw Medical University. A375, C32, MCF-7/WT, DU145 and HaCaT cells were grown in a monolayer cultured in Dulbecco’s Modified Eagle’s Medium (DMEM, Sigma-Aldrich, Poznań, Poland), supplemented with 10% of fetal bovine serum (FBS, Gibco, Paisley, UK) and 1% of antibiotics (penicillin/streptomycin, Sigma-Aldrich) and CHO-K1 were grown in HAM’s F-12 medium (Sigma-Aldrich), supplemented with 10% fetal bovine serum (FBS, Gibco) and 1% of antibiotics (penicillin/streptomycin, Sigma-Aldrich). Cell lines were cultured in the polystyrene flasks 25 or 75 cm^2 (Thermo Fisher Scientific, Waltham, MA, USA), which were stored in 37 °C and 5% CO2 in a humidified 95% atmosphere (SteriCult, Thermo Scientific, Alab). The cell medium was exchanged twice a week. The exponentially growing cells were used throughout the experiments. The cells were rinsed with phosphate-buffered saline (PBS, Sigma-Aldrich) and trypsinized by Trypsin-EDTA 0.25% solution (Sigma-Aldrich).
The influence of the compounds was performed in a monolayer culture on cancer and normal cells. Compounds were initially dissolved in DMSO; further dilutions of the compound were performed in Dulbecco’s Modified Eagle’s Medium supplemented with 10% FBS. Compounds were tested in a 50–5000 µM concentration range. In the in vitro experiments, the concentrations of DMSO in the final solution of the compounds were used 0.05%; 0.1%; 0.5%; 1%, respectively.
Cell viability was determined using the MTT colorimetric assay. All cell lines were seeded into 96-well plates to a density of 3 × 10^4 cells/well. After 24 h, the culture supernatants were removed and appropriate dilutions of compounds in the culture medium (200 µL/well) were added to the cells’ monolayer cultures and incubated for an additional 72 h. After 72 h of exposition to the compounds and the removal of the culture medium, cell viability was determined by reducing the yellow dye 3-(4,5-dimethyl-2-thiazol)-2,5-diphenyl-2H-tetrazolium bromide (MTT assay, Sigma Saint Louis, MO, USA; In Vitro Toxicology Assay) to a blue formazan product. The absorbance of the resulting solutions in three duplicate experiments was measured at the wavelength of 560 nm in a microplate reader (EnSpire, Perkin Elmer, Kraków, Poland). MTT assay is a colorimetric method that estimates the rate of metabolism in viable cells. Absorbance is directly proportional to the number of viable cells. All the experiments were performed three times and the mean absorbance values were calculated. The methodology for the evaluation of the growth of human cancer and normal cells was described previously. The cell viability in each group was expressed as a percentage of control (untreated) cells.

PC-3 = assay: NCI-60 screen, Prostate C. PC-3; format: cell-based; settings: for Growth of Cells (%): PC-3, 10^−5 M one dose
[2] = Homo sapiens, U-251, U251, five doses 10^−4–10^−8 M
[3] = Homo sapiens, SNB-19, five doses 10^−4–10^−8 M

CCNc1nc(C(F)(F)F)nc2c1sc(=S)n2-c1ccccc1 [Compound 4b, 7-(ethylamino)-3-phenyl-5-(trifluoromethyl)[1, 3]thiazolo[4,5-d]pyrimidine-2(3H)-thione]
Growth of Cells (%) (U251): 93.27% | Growth of Cells (%) (SNB-19): 106.58% | Growth of Cells (%) (HCT-15): 94.67% | Growth of Cells (%) (IGROV1): 101.57% | Growth of Cells (%) (NCI/ADR-RES): 92.88% | IC50 [1]: 476 µM

O=c1[nH]c(C(F)(F)F)nc2c1sc(=S)n2-c1ccccc1 [Compound 2b, 3-phenyl-2-thioxo-5-(trifluoromethyl)-2,3-dihydro[1, 3]thiazolo[4,5-d]pyrimidin-7(6H)-one]
Growth of Cells (%) (U251): 101.63% | Growth of Cells (%) (PC-3): 100.88% | Growth of Cells (%) (SNB-19): 102.20% | Growth of Cells (%) (HCT-15): 106.95% | Growth of Cells (%) (IGROV1): −5.14% | Growth of Cells (%) (NCI/ADR-RES): 25.77% | IC50 [1]: 468 µM

FC(F)(F)c1nc(Cl)c2sc(=S)n(-c3ccccc3)c2n1 [Compound 3b, 7-chloro-3-phenyl-5-(trifluoromethyl)[1, 3]thiazolo[4,5-d]pyrimidine-2(3H)-thione]
GI50 (U251; [2]): 1.74 µM | LC50 (lethal concentration 50%) (U251; [2]): 5.75 µM | log TGI (U251; U251, five doses 10^−4–10^−8 M): −5.50 log M | GI50 (PC-3; Homo sapiens, PC-3, five doses 10^−4–10^−8 M): 1.82 µM | CC50 (PC-3; Homo sapiens, PC-3, five doses 10^−4–10^−8 M, read-out: log LC50 (the source's name) (converted)): 6.76 µM | Growth of Cells (%) (PC-3): 53.66% | log TGI (PC-3; PC-3, five doses 10^−4–10^−8 M): −5.45 log M | GI50 (SNB-19; [3]): 1.78 µM | LC50 (SNB-19; [3]): 5.89 µM | Growth of Cells (%) (SNB-19): 98.46% | log TGI (SNB-19; SNB-19, five doses 10^−4–10^−8 M): −5.49 log M | Growth of Cells (%) (HCT-15): 2.98% | log TGI (HCT-15; HCT-15, five doses 10^−4–10^−8 M): −5.26 log M | GI50 (HCT-15; Homo sapiens, HCT-15, read-out: log GI50 (converted)): 1.86 µM | CC50 (HCT-15; Homo sapiens, HCT-15, five doses 10^−4–10^−8 M, read-out: log LC50 (the source's name) (converted)): > 100 µM | GI50 (IGROV1; Homo sapiens, IGROV-1, IGROV1, five doses 10^−4–10^−8 M): 1.95 µM | CC50 (IGROV1; Homo sapiens, IGROV-1, IGROV1, five doses 10^−4–10^−8 M, read-out: log LC50 (the source's name) (converted)): 7.59 µM | Growth of Cells (%) (IGROV1): 63.57% | log TGI (IGROV1; IGROV1, five doses 10^−4–10^−8 M): −5.41 log M | Growth of Cells (%) (NCI/ADR-RES): 109.92% | GI50 (NCI/ADR-RES; Homo sapiens, five doses 10^−4–10^−8 M): 3.31 µM | CC50 (NCI/ADR-RES; Homo sapiens, five doses 10^−4–10^−8 M, read-out: log LC50 (the source's name) (converted)): > 100 µM | log TGI (NCI/ADR-RES; five doses 10^−4–10^−8 M): −4.96 log M | IC50 [1]: 43.8 µM

Fc1ccc(CNc2nc(C(F)(F)F)nc3c2sc(=S)n3-c2ccccc2)cc1 [Compound 4c]
Growth of Cells (%) (PC-3): 100.51% | Growth of Cells (%) (SNB-19): 106.48% | Growth of Cells (%) (HCT-15): 103.39% | Growth of Cells (%) (IGROV1): 109.98% | Growth of Cells (%) (NCI/ADR-RES): 114.00% | IC50 [1]: 485 µM
